Source: patent US7192924B2, “Corticotropin releasing factor 2 receptor agonists” (priority 2002, dated 2007)
Peptide text beside a SMILES is read from it.

Experiments:
CRF1R = target: T1, CRF1R (Homo sapiens, UniProt P34998); experiment: CRF1R agonist activity (EC50, Emax), called comparative CRF binding; type: cell-based; details: read-out: CRF1R EC50
T1 sequence (P34998 24-415): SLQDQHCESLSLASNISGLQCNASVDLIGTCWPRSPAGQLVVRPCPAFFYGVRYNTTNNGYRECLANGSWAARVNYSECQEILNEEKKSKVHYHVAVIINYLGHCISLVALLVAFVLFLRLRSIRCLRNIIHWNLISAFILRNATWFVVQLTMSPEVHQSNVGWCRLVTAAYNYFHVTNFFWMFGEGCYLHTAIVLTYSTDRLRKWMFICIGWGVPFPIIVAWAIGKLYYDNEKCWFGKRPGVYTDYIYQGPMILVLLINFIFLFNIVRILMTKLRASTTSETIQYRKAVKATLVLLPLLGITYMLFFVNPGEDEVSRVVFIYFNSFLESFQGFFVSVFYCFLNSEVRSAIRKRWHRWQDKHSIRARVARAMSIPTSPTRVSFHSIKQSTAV
Description: (§1) The pharmacological activity and selectivity of the peptides of present invention can be determined using published test procedures. See, e.g, U.S. patent application Ser. No. 09/799,978. Because CRF2R and CRF1R are homologous proteins, it is expected that a certain proportion of agonists for CRF2R will also function as agonists of CRF1R. As discussed above, activation of CRF1R induces activation of the HPA axis since increased corticosteroid production leads to skeletal muscle atrophy. In most cases in which an increase in muscle mass or function is desired, it is not desirable to activate the HPA axis.
(§2) Because it is desirable to discriminate binding between CRF2R, as compared with CRF1R, the assays described above may be conducted using a cell, or membrane from a cell, which expresses only CRF2R or the assays can be conducted with a recombinant source of CRF2R. Cells expressing both forms of CRFR may be modified using homologous recombination to inactivate or otherwise disable the CRF1R gene. Alternatively, if the source of CRFR contains more than one CRFR type, the background signal produced by the receptor which is not of interest must be subtracted from the signal obtained in the assay. […] Known antagonists of CRFRs include, but, are not limited to, antalarmin (CRF1R selective), antisauvagine-30 (CRF2R selective) and astressin (nonselective for CRF1R/CRF2R).
(§3) Cell-based assays include the steps of contacting cells which express CRF1R or CRF2R with a peptide of the present invention or control and measuring activation of the CRFR by measuring the expression or activity of components of the CRFR signal transduction pathways.
(§4) As described in the background section above, CRFRs appear to couple through several different pathways including Gαs, Gαq or Gαi, depending upon the cell type. It is thought that agonist activation of CRFR allows the receptor to signal via any of these pathways, provided that the necessary pathway components are present in the particular cell type. Thus, to assay a particular peptide of the present invention for CRFR activation, an assay can use any of the signal transduction pathways as the readout even if the relevant cell type for treatment, in vivo, couples CRFR to skeletal muscle atrophy via a different pathway. […] Assays for measuring activation of these signaling pathways are known in the art.
(§5) For example, after contact with a peptide of the present invention, lysates of the cells can be prepared and assayed for induction of cAMP. cAMP is induced in response to Gαs activation. Because Gαs is activated by receptors other than CRFR and because a test peptide may be exerting its effect through CRFRs or by another mechanism, two control comparisons are relevant for determining whether the peptide increases levels of cAMP via activation of a CRFR. One control compares the cAMP level of cells contacted with the peptide and the cAMP level of cells contacted with a control compound (i.e., the vehicle in which the peptide is dissolved).
(§6) In one example, cAMP induction is measured with the use of DNA constructs containing the cAMP responsive element linked to any of a variety of reporter genes can be introduced into cells expressing CRFRs. Such reporter genes include, but are not limited to, chloramphenicol acetyltransferase (CAT), luciferase, glucuronide synthetase, growth hormone, fluorescent proteins (e.g., Green Fluorescent Protein), or alkaline phosphatase. Following exposure of the cells to the peptide, the level of reporter gene expression can be quantitated to determine the peptide's ability to increase cAMP levels and thus determine the peptide's ability to activate the CRFR.
(§7) In addition to using cells expressing full length CRFRs, cells can be engineered which express CRFRs containing the ligand binding domain of the receptor coupled to, or physically modified to contain, reporter elements or to interact with signaling proteins.

CRF2R = target: T2, CRF2R (Homo sapiens, UniProt Q13324); experiment: CRF2R agonist activity (EC50, Emax), called comparative CRF binding; type: cell-based; details: read-out: CRF2R EC50
T2 sequence (Q13324 1-411): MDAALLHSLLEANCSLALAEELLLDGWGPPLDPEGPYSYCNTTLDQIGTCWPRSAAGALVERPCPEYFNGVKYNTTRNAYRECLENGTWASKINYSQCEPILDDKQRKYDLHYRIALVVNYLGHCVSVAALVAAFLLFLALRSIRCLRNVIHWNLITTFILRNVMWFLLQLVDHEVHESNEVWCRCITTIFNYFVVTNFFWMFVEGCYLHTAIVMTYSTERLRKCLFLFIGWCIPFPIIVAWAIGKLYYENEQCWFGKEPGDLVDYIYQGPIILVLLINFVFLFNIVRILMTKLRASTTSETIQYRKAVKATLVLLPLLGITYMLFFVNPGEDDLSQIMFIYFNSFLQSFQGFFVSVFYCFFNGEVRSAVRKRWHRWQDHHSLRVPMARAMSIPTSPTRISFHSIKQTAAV
Description: as §1, §2, §3, §4, §5, §6, §7

Structure (SMILES): CC[C@H](C)[C@H](N)C(=O)N[C@H](C(=O)N[C@@H](CC(C)C)C(=O)N[C@@H](CO)C(=O)N[C@@H](CC(C)C)C(=O)N[C@@H](CC(=O)O)C(=O)N[C@H](C(=O)N1CCC[C@H]1C(=O)N[C@H](C(=O)NCC(=O)N[C@@H](CC(C)C)C(=O)N[C@@H](CC(C)C)C(=O)N[C@@H](CCC(N)=O)C(=O)N[C@H](C(=O)N[C@@H](CC(C)C)C(=O)N[C@@H](CC(C)C)C(=O)N[C@@H](CCC(=O)O)C(=O)N[C@@H](CCC(N)=O)C(=O)N[C@@H](CCC(=O)O)C(=O)N[C@@H](CCCCN)C(=O)N[C@@H](C)C(=O)N[C@@H](CCCNC(=N)N)C(=O)N[C@@H](C)C(=O)N[C@@H](C)C(=O)N[C@@H](CCCNC(=N)N)C(=O)N[C@@H](CCC(=O)O)C(=O)N[C@@H](CCC(N)=O)C(=O)N[C@@H](C)C(=O)N[C@H](C(=O)N[C@H](C(=O)N[C@@H](CC(N)=O)C(=O)N[C@@H](C)C(=O)N[C@@H](CCCNC(=N)N)C(=O)N[C@H](C(=O)N[C@@H](CC(C)C)C(=O)N[C@@H](C)C(=O)N[C@@H](CCCNC(=N)N)C(=O)N[C@H](C(N)=O)C(C)C)[C@@H](C)CC)[C@@H](C)O)[C@@H](C)O)[C@@H](C)CC)[C@@H](C)CC)C(C)C)C(C)C [compound 107] (H-IVLSLDVPIGLLQILLEQEKARAAREQATTNARILARV-NH2)
- EC50 (CRF1R): ≥ 1000 nM

Structure (SMILES): CC[C@H](C)[C@H](N)C(=O)N[C@H](C(=O)N[C@@H](CC(C)C)C(=O)N[C@@H](CO)C(=O)N[C@@H](CC(C)C)C(=O)N[C@@H](CC(=O)O)C(=O)N[C@H](C(=O)N1CCC[C@H]1C(=O)N[C@H](C(=O)NCC(=O)N[C@@H](CC(C)C)C(=O)N[C@@H](CC(C)C)C(=O)N[C@@H](CCC(N)=O)C(=O)N[C@H](C(=O)N[C@@H](CC(C)C)C(=O)N[C@@H](CC(C)C)C(=O)N[C@@H](CCC(=O)O)C(=O)N[C@@H](CCC(N)=O)C(=O)N[C@@H](CCC(=O)O)C(=O)N[C@@H](CCCCN)C(=O)N[C@@H](C)C(=O)N[C@@H](CCCNC(=N)N)C(=O)N[C@@H](C)C(=O)N[C@@H](C)C(=O)N[C@@H](CCCNC(=N)N)C(=O)N[C@@H](CCC(=O)O)C(=O)N[C@@H](CCC(N)=O)C(=O)N[C@@H](C)C(=O)N[C@H](C(=O)N[C@H](C(=O)N[C@@H](CC(N)=O)C(=O)N[C@@H](C)C(=O)N[C@@H](CCCNC(=N)N)C(=O)N[C@H](C(=O)N[C@@H](CC(C)C)C(=O)N[C@@H](C)C(=O)N[C@@H](CCCNC(=N)N)C(=O)N[C@H](C(N)=O)C(C)C)[C@@H](C)CC)[C@@H](C)O)[C@@H](C)O)[C@@H](C)CC)[C@@H](C)CC)C(C)C)C(C)C [compound 325] (H-IVLSLDVPIGLLQILLEQEKARAAREQATTNARILARV-NH2)
- EC50 (CRF2R): 11.7 nM

Structure (SMILES): CC[C@H](C)[C@H](NC(=O)[C@H](C)NC(=O)[C@H](CC(N)=O)NC(=O)[C@H](CCC(N)=O)NC(=O)[C@H](CCC(=O)O)NC(=O)[C@H](C)NC(=O)[C@H](CCCNC(=N)N)NC(=O)[C@H](CCC(=O)O)NC(=O)[C@H](CCCNC(=N)N)NC(=O)[C@H](CCC(N)=O)NC(=O)[C@H](CO)NC(=O)[C@H](CCC(N)=O)NC(=O)[C@@H](NC(=O)[C@H](CCCCN)NC(=O)[C@H](CCC(=O)O)NC(=O)[C@H](CC(C)C)NC(=O)[C@H](CCC(=O)O)NC(=O)[C@H](CC(C)C)NC(=O)[C@H](CC(C)C)NC(=O)[C@@H](NC(=O)[C@H](CCCNC(=N)N)NC(=O)[C@H](CC(C)C)NC(=O)[C@H](CC(C)C)NC(=O)[C@H](CC(C)C)NC(=O)[C@H](CC(C)C)NC(=O)[C@@H]1CCCN1C(=O)[C@H](CC(C)C)NC(=O)[C@H](CC(=O)O)NC(=O)[C@@H](NC(=O)[C@H](CO)NC(=O)[C@H](CC(C)C)NC(=O)[C@H](CO)NC(=O)[C@@H]1CCCN1C(=O)[C@H](CC(N)=O)NC(=O)[C@@H](N)CC(=O)O)[C@@H](C)CC)[C@@H](C)O)[C@@H](C)O)C(=O)N[C@H](C(=O)N[C@@H](Cc1ccccc1)C(=O)N[C@@H](C)C(=O)N[C@@H](CO)C(=O)N[C@H](C(N)=O)C(C)C)[C@@H](C)CC [compound 346] (H-DNPSLSIDLPLLLLRTLLELEKTQSQRERAEQNAIIFASV-NH2)
- EC50 (CRF2R): 8.48 nM

Structure (SMILES): CC[C@H](C)[C@H](NC(=O)[C@H](C)NC(=O)[C@H](CC(N)=O)NC(=O)[C@H](CCC(N)=O)NC(=O)[C@H](CCC(=O)O)NC(=O)[C@H](C)NC(=O)[C@H](CCCNC(=N)N)NC(=O)[C@H](CCC(=O)O)NC(=O)[C@H](CCCNC(=N)N)NC(=O)[C@H](CCC(N)=O)NC(=O)[C@H](CO)NC(=O)[C@H](CCC(N)=O)NC(=O)[C@@H](NC(=O)[C@H](CCCCN)NC(=O)[C@H](CCC(=O)O)NC(=O)[C@H](CC(C)C)NC(=O)[C@H](CCC(=O)O)NC(=O)[C@H](CC(C)C)NC(=O)[C@H](CC(C)C)NC(=O)[C@@H](NC(=O)[C@H](CCCNC(=N)N)NC(=O)[C@H](CC(C)C)NC(=O)[C@H](CC(C)C)NC(=O)[C@H](CC(C)C)NC(=O)[C@H](CC(C)C)NC(=O)[C@@H]1CCCN1C(=O)[C@H](CC(C)C)NC(=O)[C@H](CC(=O)O)NC(=O)[C@@H](NC(=O)[C@H](CO)NC(=O)[C@H](CC(C)C)NC(=O)[C@H](CO)NC(=O)[C@@H]1CCCN1)[C@@H](C)CC)[C@@H](C)O)[C@@H](C)O)C(=O)N[C@H](C(=O)N[C@@H](Cc1ccccc1)C(=O)N[C@@H](C)C(=O)N[C@@H](CO)C(=O)N[C@H](C(N)=O)C(C)C)[C@@H](C)CC [compound 348] (H-PSLSIDLPLLLLRTLLELEKTQSQRERAEQNAIIFASV-NH2)
- EC50 (CRF2R): 5.77 nM

Structure (SMILES): CC[C@H](C)[C@H](N)C(=O)N[C@H](C(=O)N[C@@H](CC(C)C)C(=O)N[C@@H](CO)C(=O)N[C@@H](CC(C)C)C(=O)N[C@@H](CC(=O)O)C(=O)N[C@H](C(=O)N1CCC[C@H]1C(=O)N[C@H](C(=O)NCC(=O)N[C@@H](CC(C)C)C(=O)N[C@@H](CC(C)C)C(=O)N[C@@H](CCC(N)=O)C(=O)N[C@H](C(=O)N[C@@H](CC(C)C)C(=O)N[C@@H](CC(C)C)C(=O)N[C@@H](CCC(=O)O)C(=O)N[C@@H](CCC(N)=O)C(=O)N[C@@H](C)C(=O)N[C@@H](CCCNC(=N)N)C(=O)N[C@@H](C)C(=O)N[C@@H](CCCNC(=N)N)C(=O)N[C@@H](C)C(=O)N[C@@H](C)C(=O)N[C@@H](CCCNC(=N)N)C(=O)N[C@@H](CCC(=O)O)C(=O)N[C@@H](CCC(N)=O)C(=O)N[C@@H](C)C(=O)N[C@H](C(=O)N[C@H](C(=O)N[C@@H](CC(N)=O)C(=O)N[C@@H](C)C(=O)N[C@@H](CCCNC(=N)N)C(=O)N[C@H](C(=O)N[C@@H](CC(C)C)C(=O)N[C@@H](C)C(=O)N[C@@H](CCCNC(=N)N)C(=O)N[C@H](C(=O)N[C@@H](CCSC)C(N)=O)C(C)C)[C@@H](C)CC)[C@@H](C)O)[C@@H](C)O)[C@@H](C)CC)[C@@H](C)CC)C(C)C)C(C)C [compound 356] (H-IVLSLDVPIGLLQILLEQARARAAREQATTNARILARVM-NH2; N-terminus assumed)
- EC50 (CRF2R): 83 nM
